In data set [1] the target is T1, Interleukin-1 receptor-associated kinase 4 (Homo sapiens, UniProt Q9NWZ3).
T1 sequence (Q9NWZ3 whole entry): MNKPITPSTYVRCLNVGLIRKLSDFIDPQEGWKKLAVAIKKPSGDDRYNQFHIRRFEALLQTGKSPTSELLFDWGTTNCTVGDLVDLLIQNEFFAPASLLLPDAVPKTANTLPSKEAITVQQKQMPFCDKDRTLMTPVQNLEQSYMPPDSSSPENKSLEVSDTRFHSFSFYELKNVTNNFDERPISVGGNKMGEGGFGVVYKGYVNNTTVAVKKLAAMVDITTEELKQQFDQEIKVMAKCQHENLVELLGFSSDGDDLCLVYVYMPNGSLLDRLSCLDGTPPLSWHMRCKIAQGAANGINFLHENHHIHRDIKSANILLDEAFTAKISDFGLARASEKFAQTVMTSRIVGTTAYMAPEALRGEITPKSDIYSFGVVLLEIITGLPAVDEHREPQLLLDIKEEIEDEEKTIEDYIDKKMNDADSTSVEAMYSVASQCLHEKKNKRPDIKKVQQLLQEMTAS
The experiment in a line: Inhibition of IRAK4 (unknown origin) using FL-IPTSPITTTYFFFKKK peptide and ATP as substrate incubated for 60 mins by fluorescence based caliper assay.

In data set [2] the target is T1, Interleukin-1 receptor-associated kinase 4. Briefly: Inhibition of IRAK4 in human PBMC assessed as inhibition of LTA-induced IL-6 production preincubated for 30 mins followed by LTA-stimulation and measured after 5 hrs by ELISA. The data set is classed as cell-based.
Data set [3] has the same target. The experiment in a line: Inhibition of IRAK4 in human whole blood assessed as inhibition of LTA-induced IL-6 production preincubated for 30 mins followed by LTA-stimulation and measured after 5 hrs by ELISA. The data set is classed as tissue-based. A general note: An ELISA detects its analyte on a solid surface through an enzyme-linked reagent.
Data set [4] can be described thus: Stability in human liver microsomes assessed as parent compound remaining. The data set is classed as ADME, Microsome. On the technique in general: Liver microsomes are a subcellular fraction often used to study metabolism.
Data set [5] is described as follows: Stability in mouse liver microsomes assessed as parent compound remaining measured after 10 mins. The data set is classed as ADME, Microsome. As to conditions: read-out: Stability.
The species named for data set [6] is Homo sapiens. Briefly: Selectivity index, ratio of IC50 for N-terminal His6-tagged human full length recombinant LCK expressed in baculovirus infected Sf21 cells to IC50 for IRAK4 (unknown origin).
Data set [7] addresses T2, Interleukin-1 receptor-associated kinase 4 (Mus musculus, UniProt Q8R4K2).
T2 sequence (Q8R4K2 whole entry): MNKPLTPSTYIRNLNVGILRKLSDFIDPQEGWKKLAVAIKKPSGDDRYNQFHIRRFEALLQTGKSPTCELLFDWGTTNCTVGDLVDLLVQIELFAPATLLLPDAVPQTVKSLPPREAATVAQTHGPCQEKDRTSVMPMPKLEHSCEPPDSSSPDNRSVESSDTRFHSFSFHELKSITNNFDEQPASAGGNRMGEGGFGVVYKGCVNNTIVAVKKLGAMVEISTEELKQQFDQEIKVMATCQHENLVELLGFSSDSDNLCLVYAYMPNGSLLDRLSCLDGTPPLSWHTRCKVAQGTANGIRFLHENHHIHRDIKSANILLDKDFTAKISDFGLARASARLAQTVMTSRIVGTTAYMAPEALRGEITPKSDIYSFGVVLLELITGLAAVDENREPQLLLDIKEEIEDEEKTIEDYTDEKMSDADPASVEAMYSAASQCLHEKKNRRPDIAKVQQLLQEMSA
The experiment in a line: Inhibition of IRAK4 in mouse whole blood. The data set is classed as tissue-based.

Data set [8] deals with T3, Interleukin-1 receptor-associated kinase 4 (Mus musculus) (UniProt Q8R4K2).
T3 sequence (whole entry): T2 sequence (Q8R4K2 whole entry)
The experiment in a line: In vivo Inhibition of IRAK4 in BALB/c mouse assessed as suppression of TLR2-mediated LTA-induced IL-6 level in serum at 10 mg/kg, po treated 30 mins prior to LTA-stimulation and measured after 90 mins by ELISA relative to control. The data set is classed as functional, organism-based.

Data set [9] has as its target T3, Interleukin-1 receptor-associated kinase 4 (Mus musculus). Briefly: In vivo Inhibition of IRAK4 in BALB/c mouse assessed as suppression of TLR2-mediated LTA-induced IL-6 level in serum at 25 mg/kg, po treated 30 mins prior to LTA-stimulation and measured after 90 mins by ELISA relative to control. The data set is classed as functional, organism-based.
Data set [10] has the same target. Briefly: In vivo Inhibition of IRAK4 in BALB/c mouse assessed as suppression of TLR2-mediated LTA-induced IL-6 level in serum at 50 mg/kg, po treated 30 mins prior to LTA-stimulation and measured after 90 mins by ELISA relative to control. In kind it is functional, organism-based.
The nature of data set [11]: Permeability across apical to basolateral side in human Caco2 cells. As to conditions: Caco-2.
A short description of data set [12]: Clearance in mouse at 2 mg/kg, iv administered as infusion or 10 mg/kg, po via gavage measured up to 24 hrs by LC-MS analysis. The data set is classed as ADME, organism-based. The conditions noted are these: in vivo.
Data set [13] in a line: Volume of distribution at steady state in mouse at 2 mg/kg, iv administered as infusion or 10 mg/kg, po via gavage measured up to 24 hrs by LC-MS analysis. As to conditions: in vivo, read-out: Vdss. The data set is classed as ADME, organism-based.
Data set [14] is described as follows: Half life in mouse at 2 mg/kg, iv administered as infusion or 10 mg/kg, po via gavage measured up to 24 hrs by LC-MS analysis. The data set is classed as ADME, organism-based. The conditions noted are these: in vivo.
A short description of data set [15]: AUC in mouse at 2 mg/kg, iv administered as infusion measured up to 24 hrs by LC-MS analysis. The data set is classed as ADME, organism-based. More on the design: time < 24 hr, dose 2 mg/kg, route intravenous. The conditions noted are these: in vivo.
The nature of data set [16]: AUC in mouse at 10 mg/kg, po via gavage measured up to 24 hrs by LC-MS analysis. The data set is classed as ADME, organism-based. As to conditions: in vivo. More on the design: time < 24 hr, dose 10 mg/kg, route oral.
The nature of data set [17]: Oral bioavailability in mouse at 10 mg/kg administered via gavage measured up to 24 hrs by LC-MS analysis. The conditions noted are these: in vivo. The data set is classed as ADME, organism-based.
Data set [18] can be described thus: Time during which drug concentration exceeds IC50 for IRAK4 in mouse whole blood in mouse at 10 mg/kg, po. In kind it is ADME, organism-based. The conditions noted are these: in vivo.
The nature of data set [19]: Drug uptake in LTA-treated BALB/c mouse serum at 25 mg/kg, po treated 30 mins prior to LTA-stimulation and measured after 90 mins by LC-MS analysis. In kind it is ADME, organism-based. The conditions noted are these: read-out: Drug uptake.
Data set [20] in a line: Drug uptake in LTA-treated BALB/c mouse serum at 10 mg/kg, po treated 30 mins prior to LTA-stimulation and measured after 90 mins by LC-MS analysis. The data set is classed as ADME, organism-based. The conditions noted are these: read-out: Drug uptake.
Data set [21] is described as follows: Drug uptake in LTA-treated BALB/c mouse serum at 50 mg/kg, po treated 30 mins prior to LTA-stimulation and measured after 90 mins by LC-MS analysis. In kind it is ADME, organism-based. As to conditions: read-out: Drug uptake.
The test system of data set [22] is Mus musculus. Briefly: Protection against imiquimod-induced psoriasis in C57BL/6 mouse assessed as inhibition of skin scaling at 3 mg/kg, po dosed via gavage once daily and measured on day 6 relative to control. The data set is classed as functional. The conditions noted are these: C57BL/6, po, 144 h.
The subject of data set [23] is Mus musculus. Briefly: Protection against imiquimod-induced psoriasis in C57BL/6 mouse assessed as inhibition of skin erythema level at 3 mg/kg, po dosed via gavage once daily and measured on day 6 relative to control. In kind it is functional. As to conditions: C57BL/6, po, 144 h.

SMILES strings stand for the structures. Bounds are passed on as bounds.

As to `CC(C)(O)[C@H](F)CNC(=O)c1cnc(Nc2ccc3ncsc3c2)cc1NC1CC1`, the IC50 amounted to 2.4 nM in [1], 230 nM in data set [2], 810 nM in [3] and 240 nM in data set [7]. For the same compound, in data set [4], the Stability is recorded as 90%. The remaining at 10 min in [5] stood at 89%. Besides, in data set [6], the Ratio IC50 is 170. The inhibition in data set [8] came out at 50%; in data set [9], 95%; in [10] it was 99%. In data set [11], the Papp A→B was 8.1 ×10⁻⁶ cm/s. For the same compound, in [12], the clearance worked out at 47 mL/min/kg. Moreover, the Vd in [13] came to 2.1 L/kg. Besides, the half-life in data set [14] is 2.2 h. For the same compound, the AUC at 24 h came to 1.6 µM·h in [15] and 3.3 µM·h in data set [16]. In data set [17], this compound gave a bioavailability of 40%. Besides, the “T>IC50” value in data set [18] is on record as “<= 3 hr”. Also, the concentration at 1.5 h in [19] is 4.5 µM; in data set [20], 0.41 µM; in data set [21], 9.6 µM.

Turning to `C[C@@H]1C[C@H]2[C@@H]3CCC4=CC(=O)C=C[C@]4(C)[C@@]3(F)[C@@H](O)C[C@]2(C)[C@@]1(O)C(=O)CO` [DEXAMETHASONE], the values for the inhibition in vivo at 3 mg/kg in data set [22] and in [23] were 45% and 37%, respectively.

In general, IC50 refers to the concentration at which inhibition is half-maximal. Broadly, the inhibition is the change of the read-out against control, counted positive when it falls. As a reminder, the Papp A→B is the apparent permeability from the apical to the basolateral side of a cell layer. Higher therefore signals fast passage. By half-life is commonly meant the time in which the quantity being followed falls by half. A higher half-life goes with slow decline. By AUC is commonly meant the area under the concentration-time curve, a measure of exposure. One may read the bioavailability as the share of a dose that reaches the circulation, judged against a reference dose that is usually intravenous. A low value points to little systemic uptake. Broadly, the inhibition in vivo is the relative decrease from the control value, in per cent.

The record behind these values is ChEMBL document CHEMBL4622963, “Optimization of Nicotinamides as Potent and Selective IRAK4 Inhibitors with Efficacy in a Murine Model of Psoriasis” (ACS Med Chem Lett, 2020).
